The values below come from PubChem BioAssay (NCI).

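In this assay, cells in 96-well plates receive the compound at five concentrations for 48 hours. Endpoints are linearly interpolated between the surrounding concentrations. TGI is the concentration that stops growth completely.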

Common to all, as to test: NCI tumour cell line growth inhibition, 48 h
Assay [1] concerns HCT-15 colon.
Assay [2] relates to OVCAR-3 ovarian.
Assay [3] deals with RPMI-8226 leukemia.
Assay [4] concerns M14 melanoma.
The test system of assay [5] is NCI-H522 lung.
Assay [6] relates to OVCAR-5 ovarian.
Assay [7] has as its system MALME-3M melanoma.
The test system of assay [8] is SN12C renal.
Assay [9] relates to A549 NSCLC.
In assay [10] the test system is COLO 205 colon.
Assay [11] concerns MDA-N.
The subject of assay [12] is CAKI-1 renal.

Turning to `O=C(N/N=C1\CCc2ccccc21)N/N=C1\CCc2ccccc21`, the TGI in [1] is greater than 100 µM; in assay [2], greater than 100 µM; in [3] it was greater than 100 µM; in [4], 26.3 µM; in assay [5], greater than 100 µM; in assay [6], greater than 100 µM. For the same compound, the TGI in [7] is greater than 100 µM; in [8], greater than 100 µM; in [9], greater than 100 µM; in assay [10], greater than 100 µM; in [11] it was 30 µM; in [12], greater than 100 µM.
`O=C(O)C1CCCCN1CCc1c[nH]c2ccccc12` (stereo not given): the TGI in assay [1], in assay [2], in [3], in assay [4], in assay [5] and in assay [6] was greater than 100 µM each time. Moreover, the TGI in assay [7], in assay [8], in assay [9], in assay [10], in assay [11] and in [12] was greater than 100 µM in each case.
Take `CC(C)=CCc1c(O)c(CC=C(C)C)c2oc3c(c(=O)c2c1O)C(C=C(C)C)Oc1cc(O)ccc1-3` (stereo not given): the TGI in assay [1] is 19.1 µM; in assay [2], 14.8 µM; in assay [3] it was 20.6 µM; in [4], 21 µM; in assay [5] it was 15.2 µM; in [6], 33.1 µM. The TGI was determined as 37 µM in [7]; 18.2 µM in assay [8]; 20.6 µM in [9]; 30.3 µM in assay [10]; 12.1 µM in assay [11]; 19.4 µM in assay [12].
On to `O=C(c1no[n+]([O-])c1C(=O)c1csc2ccccc12)c1csc2ccccc12`, for which the TGI in assay [1] was found to be 21.7 µM; in assay [2], 3.78 µM; in [3], 1.95 µM; in assay [4], 22.4 µM; in [5], 0.843 µM; in assay [6], 35.4 µM. Also, the TGI in assay [7] worked out at 13.5 µM; in [8], 12.1 µM; in [9], 35.7 µM; in assay [10], 9 µM; in assay [11], 21.6 µM; in [12], 2.23 µM.
As to `CC(C)c1cc(C(C)C)c(P2(=O)CC3C(Cl)(Cl)C3(C)C2)c(C(C)C)c1` (stereo not given), the TGI in assay [1] is 25.1 µM; in [2] it was 20.4 µM; in assay [3], greater than 25.5 µM; in assay [4], 23.2 µM; in assay [5], 4 µM; in assay [6] it was 30.5 µM. Besides, the TGI worked out at 33.2 µM in [7]; 29.3 µM in [8]; 25.6 µM in assay [9]; 25 µM in [10]; 27.1 µM in assay [11]; 9.6 µM in [12].
With `CSC(=S)Nc1cc(C)ccn1`, the TGI in [1], in [2], in assay [3], in assay [4], in assay [5] and in [6] was greater than 100 µM in each case. Also, the TGI in assay [7], in [8], in [9], in assay [10], in [11] and in assay [12] was greater than 100 µM each time.
Turning to `COC(=O)/C=C1/OC(c2ccccc2)=CC1=O`, the TGI in assay [1] is 30.1 µM; in assay [2] it was 39.4 µM; in [3], 23.2 µM; in [4] it was 51.5 µM; in assay [5], 39.3 µM; in assay [6], 36.9 µM. Further, the TGI in [7] was 34.9 µM; in [8], 38.9 µM; in assay [9], greater than 82.9 µM; in [10] it was 29.5 µM; in assay [11], 34.1 µM; in [12] it was 33.9 µM.
On to `C=C1C(=O)OC2C3C(=C)[C@@H](OC(C)=O)CC3C(C)=CC(OC(=O)C(C)(O)C(C)OC(C)=O)[C@@H]12` (stereo not given in full), for which the TGI is 22 µM in assay [1]; 21.8 µM in [2]; 65.7 µM in assay [3]; 19.7 µM in [4]; 3.21 µM in assay [5]; 24.9 µM in assay [6]. Also, the TGI in assay [7] was determined as 20.2 µM; in [8], 27.8 µM; in assay [9] it was 77.8 µM; in assay [10], 15.9 µM; in assay [11], 18.5 µM; in [12] it was 12.4 µM.
`CC1(c2nc3ccccc3[nH]2)CCC(CO)C(C)(C)O1` (stereo not given): the TGI in [1], in assay [2], in assay [3], in [4], in assay [5] and in [6] was greater than 100 µM throughout. The TGI in assay [7], in [8], in [9], in [10], in [11] and in assay [12] was greater than 100 µM in each case.
Take `CC1(C)O[C@@H]([C@@H](O)[C@H](O)C2SCCCS2)[C@@H](CO)O1`: the TGI in assay [1], in assay [2], in assay [3], in assay [4], in [5] and in assay [6] was greater than 100 µM in each case. Also, the TGI in assay [7], in [8], in assay [9], in assay [10], in assay [11] and in [12] was greater than 100 µM each time.
